From patent US20250248979A1, “NOVEL GPX4 INHIBITORS AND USES THEREOF” (THE TRUSTEES OF COLUMBIA UNIVERSITY IN THE CITY OF NEW YORK, priority 2022, published 2025)
Numbering of substitutions follows the chain as printed. Where two headings read alike, the source gives them in different places.

Legend:
in vitro = conditions: mouse, plasma
GPX4 = target: T1, GPX4 (Homo sapiens, UniProt P36969); test: Western blot assay of GPX4 protein degradation; format: cell-based
T1 sequence (P36969 1-170 isoform P36969-2): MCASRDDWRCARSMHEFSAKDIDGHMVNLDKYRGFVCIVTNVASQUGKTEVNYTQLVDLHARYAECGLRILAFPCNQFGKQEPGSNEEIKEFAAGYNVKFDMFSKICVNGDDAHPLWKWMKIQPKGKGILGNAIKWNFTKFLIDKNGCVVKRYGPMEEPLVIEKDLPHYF
Protocol: HT-1080 cells were seeded at 250,000 cells per well in a 6-well plate and incubated 37° C. with 5% CO2 overnight. The next day, cells were treated with vehicle alone or the compound of interest with 10 μM Fer-1 for 10 hours. Compounds were dissolved in DMSO. Cells were harvested with trypsin, washed with cold PBS, and lysed in RIPA buffer containing complete Protease Inhibitor Cocktail mini tablets (Roche) on ice for 30 minutes. Samples were then centrifuged at 14,000×g for 15 minutes at 4° C. Supernatants were collected and protein concentrations were determined using the BCA Protein Assay Kit (Pierce). Concentrations were normalized across samples and mixed with 6×SDS-PAGE Sample Loading Buffer (G Biosciences). Protein samples were then loaded on a NuPAGE Novex 4-12% Bis-Tris protein gel and run in MES buffer (Invitrogen) at 100V for 10 minutes then 200V for an additional 30 minutes. Proteins were transferred to a PVDF membrane (Invitrogen) using the iBlot 2 Gel Transfer Device. The membrane was washed with PBS, then blocked using Intercept Blocking Buffer (LICOR) for one hour. The membrane was then incubated with the primary antibodies in a 1:1 solution of blocking buffer and PBST (PBS+0.1% Tween 20) overnight at 4° C. […] The blot was imaged using a LI-COR Odyssey CLx IR scanner and results were quantified in ImageJ and GraphPad Prism 9.

GPX4^U46C = target: T2, GPX4^U46C (Homo sapiens, UniProt P36969, U73C); test: Protein crystallography of inhibitor complexes
T2 construct: made in house; host or cells: E. coli BL21-Gold (DE3)
T2 sequence (P36969 1-170 isoform P36969-2 U46C): T1 sequence (P36969 1-170 isoform P36969-2) with U46C
Protocol: GPX4^U46C was pre-incubated with covalent inhibitors before crystallization using conditions that were optimized with monitoring on intact protein MALDI MS analysis. 40 μM GPX4^U46C was incubated with 375 μM LOC1886 in the reaction buffer (20 mM Tris pH 9.0, 100 mM NaCl, 2 mM TCEP, 1.5% DMSO) at 37° C. for 4 hours and then 4° C. overnight. Covalent binding was confirmed using intact protein MALDI MS analysis. The protein-inhibitor complex was then exchanged into crystallization buffer (20 mM Tris, pH 8.0, 300 mM NaCl, 3 mM TCEP) and concentrated to 5 mg/mL.
Protein samples of GPX4^U46C in complex with LOC1886 were initially screened at the High-Throughput Crystallization Screening Center of the Hauptman-Woodward Medical Research Institute (HWI) (hwi.buffalo.edu/high-throughput-crystallization-center/) (Luft et al. 2003). The most promising crystal hits were reproduced using under oil micro batch method at 23° C. […]
GPX4^U46C with LOC1886 diffracted X-ray at the beamline NE-CAT24-ID-C to resolution 1.93 Å. […] The structure of each protein was determined by molecular replacement method using MOLREP program and the crystal structures of GPX4^U46C (PDB id: 7L8K) and GPX4^U46C-R152H (PDB id: 7L8L) were both used as search models for structure determination (Vagin and Teplyakov, 2010). […]

GPX1 = target: T3, GPX1 (Homo sapiens, UniProt P07203); test: GPX1 activity assay in cell lysates; format: biochemical; set-up: endogenous in cells; host or cells: A-673 cell lysate
T3 sequence (P07203 1-203): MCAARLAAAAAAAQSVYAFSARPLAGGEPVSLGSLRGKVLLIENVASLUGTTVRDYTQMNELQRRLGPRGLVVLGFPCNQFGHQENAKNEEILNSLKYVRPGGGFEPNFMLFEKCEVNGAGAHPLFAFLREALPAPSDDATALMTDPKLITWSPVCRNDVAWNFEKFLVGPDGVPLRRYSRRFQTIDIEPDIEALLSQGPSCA
Protocol: Determination of GPX1 activity in cell lysates was performed as previously described by Stolwijk et al. with some modifications (Stolwijk et al. 2020). GPX1 and GPX4 activity were not evaluated simultaneously in the same assay as in the published protocol to maximize signal-to-noise with the GPX1 substrate. Again, NADPH consumption, as determined by the reduction in the absorbance at 340 nm, over time was monitored as a proxy for GPX1 activity, which, like GPX4, reduces its substrates using glutathione as a reductant. 100 μM hydrogen peroxide was selected as the GPX1 substrate in this assay. A-673 cell lysates and assay setup were performed as above for the GPX4 activity assay. All conditions were tested in triplicate. Buffer-only controls and controls without substrate containing only Milli-Q water vehicle were performed to assess background and baseline signal. GPX1 activity was calculated as reported by Stolwijk et al. 2020 and results were analyzed in GraphPad Prism 9.

[1] = not given; remark: listed apart in the source
SU-DHL-2 = test: Cytotoxicity in DLBCL cells, SU-DHL-2; format: cell-based, human; conditions: for IC50: SU-DHL-2
SU-DHL-7 = test: Cytotoxicity in DLBCL cells, SU-DHL-7; format: cell-based, human; conditions: for IC50: SU-DHL-7
[2] = Fer-1 1.0 μM, read-out: IC50 (μM) with Fer-1

Question: With `COc1cccc2[nH]c(C(=O)n3ccnc3)cc12` [LOC1886, reference compound] as the compound, how does the half-life (in vitro) read?
Answer: < 2 min

Question: And the “GPX4 protein degradation, result in words” value (GPX4; HT-1080 cells)?
Answer: inhibits and degrades GPX4

Question: What about the “binding site in co-crystal structure” value (GPX4^U46C) of the same compound?
Answer: bound to allosteric sites C66 and C10 of GPX4^U46C

Question: With `CC(C)(COC(=O)CCl)NC(=O)c1cc2ccc(Br)cc2[nH]1` [QW-156] as the compound, how does the GPX1 inhibition (GPX1; 200 μM) read?
Answer: approximately 30%

Question: Which results are given for `Cn1nc(C(=O)NC(C)(C)COC(=O)CCl)c2ccc(Br)cc21` [QW-314]?
Answer: GPX1 activity assay effect (GPX1): no inhibitory effect; selectivity for GPX4 over GPX1, result in words (GPX1): high selectivity for GPX4 over GPX1; half-life (in vitro): 40.7 min; GPX4 protein degradation, result in words (GPX4): induces GPX4 protein degradation in HT-1080 cells; binding site in co-crystal structure (GPX4^U46C): covalently binds to the mutant cysteine in the U46 residue

Question: For `COc1ccc(-c2ccc3c(C(=O)NC(C)(C)COC(=O)CCl)nn(C)c3c2)cc1Cl` [QW-446], which “Plasma Stability t1/2 (min) human” value is on record?
Answer: 7.5 min

Question: What about the “Plasma Stability t1/2 (min) mouse” value [1] of the same compound?
Answer: 24.0 min

Question: Which “Selectivity^a (fold)” value (SU-DHL-2) does the source give for `CC(C)(COC(=O)CCl)NC(=O)c1nn(Cc2cc(Cl)cc(Cl)c2)c2cc(-c3ccc(N4CCOCC4)c(Cl)c3)ccc12` [QW-852] here?
Answer: >1000 fold

Question: And the IC50 (SU-DHL-2; 24 h, read-out: IC50)?
Answer: 0.002 µM

Question: And the IC50 (SU-DHL-2; [2])?
Answer: 4.95 µM

Question: What about the “Selectivity^a (fold)” value (SU-DHL-7) of the same compound?
Answer: >1000 fold

Question: And the IC50 (SU-DHL-7; 24 h, read-out: IC50)?
Answer: 0.031 µM

Question: What about the IC50 (SU-DHL-7; [2]) of the same compound?
Answer: > 1000 µM

Question: What does the source list for `COC(=O)c1ccc([C@@H]2c3[nH]c4ccccc4c3C[C@@H](C(=O)OC)N2C(=O)CCl)cc1` [RSL3, reference compound]?
Answer: Selectivity^a (fold) (SU-DHL-2): 8 fold; IC50 (SU-DHL-2; 24 h, read-out: IC50): 0.18 µM; IC50 (SU-DHL-2; [2]): 1.5 µM; Plasma Stability t1/2 (min) human: >1000 min; Plasma Stability t1/2 (min) mouse [1]: 5.2 min; Selectivity^a (fold) (SU-DHL-7): 6 fold; IC50 (SU-DHL-7; 24 h, read-out: IC50): 0.17 µM; IC50 (SU-DHL-7; [2]): 1 µM
